The results in this text go back to patent publication US7153851B2, “10-(3-cyclopropylaminomethyl-1-pyrrolidinyl)pyridobenzoxazinecarboxylic acid derivative effective against resistant bacterium” (Kyorin Pharmaceutical Co., Ltd., priority 2002, dated 2006).

Values after ≈ are worked out from the molar mass of the structure shown.

Experiment in all cases: In vitro antibacterial activity (MIC), agar dilution method according to NCCLS
What all share (type): cell-based
In general terms: In agar dilution, organisms are placed on agar that contains the substance at set levels.

One assay has as its system E. faecalis IID682. Also noted: unit not given here. As to conditions: Muller-Hinton agar medium containing 5% defibrinated equine blood.
For a further assay, the system named is S. pneumoniae Type III. The following applies: Muller-Hinton agar medium containing 5% defibrinated equine blood.
Another assay has as its system S. aureus Smith. As to conditions: Muller-Hinton agar medium. As to the method:
(§1) The in vitro antibacterial activity (as measured by the minimum inhibitory concentration (MIC)) was determined for each of the compounds of the present invention by the agar dilution method according to NCCLS (National Committee for Clinical Laboratory Standard (1997), Methods for Dilution Antibacterial Susceptibility Tests for Bacteria that grow Aerobically-Forth Edition: Approved Standard m7-A4. NCCLS, Villanova, Pa.), which involved the use of Muller-Hinton agar medium.

The test system of assay [1] is S. aureus MS16401 (quinolone-resistant S. aureus). The following applies: Muller-Hinton agar medium. As to the method: as §1
Assay [2] concerns S. aureus MR5867 (methicillin-resistant S. aureus). As to conditions: Muller-Hinton agar medium. As to the method:
as §1

Regarding `C[C@H]1COc2c(N3C[C@@H](CNC4CC4)[C@H](C(F)(F)F)C3)c(F)cc3c(=O)c(C(=O)O)cn1c23` (relative stereo) [Example 19, (3S)-10-(trans-3-cyclopropylaminomethyl-4-trifluoromethyl-1-pyrrolidinyl)-9-fluoro-2,3-dihydro-3-methyl-7-oxo-7H-pyrido[1,2,3-d,e][1,4]benzoxazine-6-carboxylic acid], the MIC in the assay with E. faecalis IID682 is 0.25; with S. pneumoniae Type III, 0.125; with S. aureus Smith it was 0.016; in assay [1], 125 µg/mL (≈ 266 µM); in assay [2], 0.016.

With `C[C@H]1CN(c2c(F)cc3c(=O)c(C(=O)O)cn4c3c2OC[C@@H]4C)C[C@H]1CNC1CC1` (relative stereo) [Example 13, (3S)-10-(cis-3-cyclopropylaminomethyl-4-methyl-1-pyrrolidinyl)-9-fluoro-2,3-dihydro-3-methyl-7-oxo-7H-pyrido[1,2,3-d,e][1,4]benzoxazine-6-carboxylic acid], the MIC with E. faecalis IID682 turned out to be 0.125; in the assay on S. pneumoniae Type III, 0.031; in the assay with S. aureus Smith it was 0.008; in assay [1], 31 µg/mL (≈ 74.6 µM); in assay [2], 0.008.
